Literature values in US20140315870A1, “COMPOSITION COMPRISING A GLUCOCORTICOID AND A THIAZOLIDINEDIONE FOR INDUCING COMPELTE ADIPOGENIC DIFFERENTIATION OF MAMMALIAN STEM CELLS” (UNIVERSIDAD DEL DESARROLLO, priority 2011, published 2014).

Conditions: chronic consumption in humans

CN(CCOc1ccc(CC2SC(=O)NC2=O)cc1)c1ccccn1 (stereo not shown) [rosiglitazone]
increase in the chance for cardiovascular accidents: 50%
